Assay results: ChEMBL document CHEMBL4680212, “Discovery of T-1101 tosylate as a first-in-class clinical candidate for Hec1/Nek2 inhibition in cancer therapy” (Eur J Med Chem, 2020); call rule not given here

Assays:
[1] = system: MDA-MB-231; test: Antiproliferative activity against human MDA-MB-231 cells measured after 96 hrs by CellTiter 96 Aqueous One Solution Reagent based assay; format: functional, cell-based; settings: MDA-MB-231, 96 h
[2] = system: HeLa; test: Antiproliferative activity against human HeLa cells measured after 96 hrs by CellTiter 96 Aqueous One Solution Reagent based assay; format: functional, cell-based
[3] = Oral bioavailability in CD-1 mouse at 10 mg/kg administered as single dose via gavage by LC-MS/MS analysis; format: ADME, organism-based; settings: in vivo
[4] = system: MDA-MB-468; test: Induction of mitosis in human MDA-MB-468 cells assessed as mitotic abnormalities at 1 uM measured after 24 hrs by immunofluorescence staining based microscopic analysis (reference value: 23%); format: functional
[5] = system: MDA-MB-468; test: Induction of mitosis in human MDA-MB-468 cells assessed as mitotic abnormalities at 1 uM measured after 48 hrs by immunofluorescence staining based microscopic analysis (reference value: 23%); format: functional
[6] = system: HeLa; test: Cell cycle arrest in human HeLa cells assessed as accumulation at sub-G1 phase at 1 uM measured after 24 hrs by propidium iodide staining based FACS analysis (reference value: 3.64%); format: functional
[7] = system: HeLa; test: Cell cycle arrest in human HeLa cells assessed as accumulation at G1 phase at 1 uM measured after 24 hrs by propidium iodide staining based FACS analysis (reference value: 66.51%); format: functional
[8] = system: HeLa; test: Cell cycle arrest in human HeLa cells assessed as accumulation at S phase at 1 uM measured after 24 hrs by propidium iodide staining based FACS analysis (reference value: […]%); format: functional
[9] = system: HeLa; test: Cell cycle arrest in human HeLa cells assessed as accumulation at G2/M phase at 1 uM measured after 24 hrs by propidium iodide staining based FACS analysis (reference value: 12.93%); format: functional
[10] = system: U-937; test: Antiproliferative activity against human U-937 cells measured after 96 hrs by CellTiter 96 Aqueous One Solution Reagent based assay; format: functional
[11] = system: COLO 205; test: Antiproliferative activity against human COLO 205 cells measured after 96 hrs by CellTiter 96 Aqueous One Solution Reagent based assay; format: functional
[12] = system: U2OS; test: Antiproliferative activity against human U2OS cells measured after 96 hrs by CellTiter 96 Aqueous One Solution Reagent based assay; format: functional
[13] = biological target: Voltage-gated inwardly rectifying potassium channel KCNH2 (Homo sapiens, UniProt Q12809); test: Inhibition of human ERG
Voltage-gated inwardly rectifying potassium channel KCNH2, sequence (Q12809 whole entry): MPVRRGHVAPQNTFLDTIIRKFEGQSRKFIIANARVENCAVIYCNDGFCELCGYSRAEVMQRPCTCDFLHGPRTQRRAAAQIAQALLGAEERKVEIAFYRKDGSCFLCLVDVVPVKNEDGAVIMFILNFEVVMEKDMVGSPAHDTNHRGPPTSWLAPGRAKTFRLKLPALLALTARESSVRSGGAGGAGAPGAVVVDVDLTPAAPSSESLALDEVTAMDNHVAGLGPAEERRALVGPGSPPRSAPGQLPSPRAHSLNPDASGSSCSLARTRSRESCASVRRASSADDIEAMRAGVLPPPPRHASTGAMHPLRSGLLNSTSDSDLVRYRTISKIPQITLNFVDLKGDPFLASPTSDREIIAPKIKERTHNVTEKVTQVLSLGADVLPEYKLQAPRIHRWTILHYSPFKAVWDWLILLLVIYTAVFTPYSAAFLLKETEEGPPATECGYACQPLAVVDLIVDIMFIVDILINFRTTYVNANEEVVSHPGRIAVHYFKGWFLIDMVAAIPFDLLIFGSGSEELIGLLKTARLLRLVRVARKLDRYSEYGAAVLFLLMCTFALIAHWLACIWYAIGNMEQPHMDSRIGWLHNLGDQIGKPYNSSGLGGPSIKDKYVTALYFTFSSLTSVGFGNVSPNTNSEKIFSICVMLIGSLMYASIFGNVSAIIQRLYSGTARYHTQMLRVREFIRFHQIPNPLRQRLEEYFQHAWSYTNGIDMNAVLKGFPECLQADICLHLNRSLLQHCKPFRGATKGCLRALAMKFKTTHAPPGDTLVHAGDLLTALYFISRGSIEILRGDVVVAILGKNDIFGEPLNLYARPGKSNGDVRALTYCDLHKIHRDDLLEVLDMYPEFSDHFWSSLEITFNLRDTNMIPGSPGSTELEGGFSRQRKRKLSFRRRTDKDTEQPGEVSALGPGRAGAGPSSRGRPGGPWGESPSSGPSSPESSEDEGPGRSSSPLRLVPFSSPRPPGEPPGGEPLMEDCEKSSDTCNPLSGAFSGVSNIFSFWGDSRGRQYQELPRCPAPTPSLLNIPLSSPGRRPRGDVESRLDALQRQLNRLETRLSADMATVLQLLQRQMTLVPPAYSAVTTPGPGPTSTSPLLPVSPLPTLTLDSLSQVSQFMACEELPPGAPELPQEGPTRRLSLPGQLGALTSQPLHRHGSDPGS

[14] = Drug level in tumor of human Huh-7 cells xenografted SCID mouse at 10 mg/kg, iv measured after 0.5 hrs by LC-MS/MS analysis; format: ADME, organism-based, Neoplasm; settings: read-out: Drug uptake
[15] = Drug level in tumor of human Huh-7 cells xenografted SCID mouse at 10 mg/kg, iv measured after 4 hrs by LC-MS/MS analysis; format: ADME, organism-based, Neoplasm; settings: read-out: Drug uptake
[16] = Drug level in tumor of human Huh-7 cells xenografted SCID mouse at 10 mg/kg, iv measured after 8 hrs by LC-MS/MS analysis; format: ADME, organism-based, Neoplasm; settings: read-out: Drug uptake
[17] = Drug level in tumor of human Huh-7 cells xenografted SCID mouse at 10 mg/kg, iv measured after 24 hrs by LC-MS/MS analysis; format: ADME, organism-based, Neoplasm; settings: read-out: Drug uptake
[18] = system: Huh-7; test: Anticancer activity against human Huh-7 cells after 24 hrs by CellTiter 96 Aqueous One Solution Reagent based assay; format: functional
[19] = Ratio of drug level in tumor to plasma of human Huh-7 cells xenografted SCID mouse at 10 mg/kg, iv measured after 1 hr by LC-MS/MS analysis; format: ADME, organism-based; settings: tumour
[20] = Ratio of drug level in tumor to plasma of human Huh-7 cells xenografted SCID mouse at 10 mg/kg, iv measured after 12 hrs by LC-MS/MS analysis; format: ADME, organism-based; settings: tumour
[21] = Drug level in tumor of human MDA-MB-231 cells xenografted SCID mouse at 10 mg/kg, iv measured after 2 hrs by LC-MS/MS analysis; format: ADME, organism-based, Neoplasm; settings: read-out: Drug uptake
[22] = Ratio of drug level in tumor to plasma of human MDA-MB-231 cells xenografted SCID mouse at 10 mg/kg, iv measured after 2 hrs by LC-MS/MS analysis; format: ADME, organism-based; settings: tumour
[23] = system: Huh-7; test: Antitumor activity against human Huh-7 cells xenografted in SCID mouse assessed as tumor growth at 50 mg/kg, po administered twice daily for 28 days measured post last dose relative to control; format: functional; settings: time 28 day
[24] = system: BT-474; test: Antitumor activity against human BT-474 cells xenografted in SCID mouse assessed as tumor growth at 50 mg/kg, po administered twice daily for 28 days measured post last dose relative to control; format: functional; settings: time 28 day
[25] = system: MCF7; test: Antitumor activity against human MCF7 cells xenografted in SCID mouse assessed as tumor growth at 50 mg/kg, po administered twice daily for 28 days measured post last dose relative to control; format: functional; settings: time 28 day
[26] = system: MDA-MB-231; test: Antitumor activity against human MDA-MB-231 cells xenografted in SCID mouse assessed as tumor growth at 25 mg/kg, po administered twice daily for 28 days measured post last dose relative to control; format: functional; settings: time 28 day
[27] = system: Huh-7; test: Antitumor activity against human Huh-7 cells xenografted in SCID mouse assessed as tumor growth at 25 mg/kg, po administered once daily for 28 days measured post last dose relative to control; format: functional; settings: time 28 day
[28] = system: Huh-7; test: Antitumor activity against human Huh-7 cells xenografted in SCID mouse assessed as tumor growth at […], po administered twice daily for 28 days measured post last dose in presence of sorafenib relative to control; format: functional; settings: time 28 day
[29] = system: Huh-7; test: Antitumor activity against human Huh-7 cells xenografted in SCID mouse assessed as tumor growth at […], po administered twice daily for 28 days measured post last dose relative to control; format: functional; settings: time 28 day
[30] = Tmax in CD-1 mouse at 10 mg/kg, po administered as single dose via gavage by LC-MS/MS analysis; format: ADME, organism-based; settings: in vivo
[31] = Half life in CD-1 mouse at 10 mg/kg, po administered as single dose via gavage by LC-MS/MS analysis; format: ADME, organism-based; settings: in vivo
[32] = Toxicity in Sprague-Dawley rat assessed as restlessness up to 60 mg/kg, po administered as single dose; format: organism-based; settings: in vivo
[33] = Toxicity in Sprague-Dawley rat assessed as lethargy up to 60 mg/kg, po administered as single dose; format: organism-based; settings: in vivo
[34] = Toxicity in Sprague-Dawley rat assessed as tremor up to 60 mg/kg, po administered as single dose; format: organism-based; settings: in vivo
[35] = Toxicity in Sprague-Dawley rat assessed as convulsion up to 60 mg/kg, po administered as single dose; format: organism-based; settings: in vivo
[36] = Toxicity in Sprague-Dawley rat assessed as change in touch response up to 60 mg/kg, po administered as single dose; format: organism-based; settings: in vivo
[37] = Toxicity in Beagle dog assessed as cardiopulmonary effect at 40 mg/kg, po administered as single dose; format: organism-based, Canis lupus familiaris; settings: in vivo
[38] = Toxicity in Sprague-Dawley rat assessed as change in clinical pathology at 60 mg/kg, po measured during 28 days; format: organism-based; settings: in vivo, time 28 day
[39] = Toxicity in Sprague-Dawley rat assessed as change in serum biochemistry at 60 mg/kg, po measured during 28 days; format: organism-based; settings: in vivo, time 28 day
[40] = Toxicity in Sprague-Dawley rat assessed as effect on organ at 60 mg/kg, po measured during 28 days; format: organism-based; settings: in vivo, time 28 day

Compound: COCCOc1cnc(Sc2cc(C)c(-c3csc(NC(=O)c4ccncc4)n3)c(C)c2)cn1
- IC50 [1]: 0.0148 µM
- IC50 [2]: 0.0211 µM
- bioavailability [3]: 50.6%
- Activity [4]: 45%
- Activity [5]: 64%
- Activity [6]: 20.44%
- Activity [7]: 54.2%
- Activity [8]: 15.07%
- Activity [9]: 9.27%
- GI50 [10]: 0.0124 µM
- GI50 [11]: 0.0291 µM
- GI50 [12]: 0.0832 µM
- inhibition (INH) [13]: Not Active
- concentration at 0.5 h [14]: 3.38 µM
- concentration at 4 h [15]: 2.07 µM
- concentration at 8 h [16]: 0.937 µM
- concentration at 24 h [17]: 0.0599 µM
- GI50 [18]: 0.0599 µM
- Ratio [19]: 26.1%
- Ratio [20]: 60.5%
- concentration at 2 h [21]: 2.95 µM
- Ratio [22]: 24.1%
- T/C [23]: 18%
- T/C [24]: 19%
- T/C [25]: 52%
- T/C [26]: 40%
- T/C [27]: 25%
- T/C [28]: 26%
- T/C [29]: 61%
- Tmax [30]: 0.5 h
- half-life [31]: 2.57 h
- Activity [32]: Non-Toxic
- Activity [33]: Non-Toxic
- Activity [34]: Non-Toxic
- Activity [35]: Non-Toxic
- Activity [36]: Non-Toxic
- Activity [37]: Non-Toxic
- Activity [38]: Non-Toxic
- Activity [39]: Non-Toxic
- Activity [40]: Non-Toxic
